Patent publication US8669377B2, “Anti-human urothelial carcinoma of supercritical carbon dioxide extract of Cinnamomum subavenium, and the preparation process and uses” (Kaohsiung Medical University, priority 2011, dated 2014)
Like-named read-outs stand apart in the source and are kept apart here.

Tests used:
[1] = test system: human urothelial carcinoma cell line NTUB1; assay: MTT cytotoxicity assay, NTUB1; type: cell-based
Protocol: (§1) Cytotoxicity assay was performed by using C. subavenium supercritical CO2 extract obtained according to the preparation method mentioned above. […] C. subavenium supercritical CO2 extract selectively functioned on NTUB1 carcinoma cells rather than the normal cells.
(§2) Cellular cytotoxicity of tested compounds was performed by using a MTT (3-[4,5-dimethylthiazol-2-yl]-2,5-diphenyltetrazolium bromide) assay. Briefly, the cells were plated with a density of 1×10^3 cells/well in 96-well plates and incubated at 37° C. overnight before drug treatment. Cells were then cultured in the absence or presence of various concentrations (0.3, 1, 3, 6, 9, 12, 15 and 20 μM) of subamolide A at 37° C. for 72 hours. Subsequently, 50 μL of MTT (2 mg/mL in PBS) was added to each well and allowed to react for another 4 hours. Following centrifugation at 1000×g for 10 minutes, media were removed and 150 μL DMSO were added to each well. The proportions of surviving cells were determined by absorbance spectrometry at 540 nm using a microplate reader. The cell viability was expressed as the survival ratio to the un-treated control. The IC50 values of each group were calculated by the median inhibitory analysis and presented as means±SD. The combinational effects of two compounds were analyzed by median-effect analysis. To evaluate the combined effects in growth inhibition, a corresponding combination index (CI) was adopted for the measurement. The combination index of <1, =1, or >1 denotes synergic, additive, or antagonistic effect, respectively.

[2] = test system: normal urothelial cell line SV-HUC-1; assay: MTT cytotoxicity assay, SV-HUC-1; type: cell-based, human; details: SV-HUC-1, 72 hours; read-out: IC50 (reduction of growth)
Protocol: as §1
as §2, with “To evaluate the combined effects in growth inhibition, a corresponding combination index (CI) was adopted for the measurement. The combination index of <1, =1, or >1 denotes synergic, additive, or antagonistic effect, respectively.” left out

[3] = test system: urothelial carcinoma cells T24; assay: MTT cytotoxicity assay, T24; type: cell-based, human; details: T24, 72 hours; read-out: IC50 (reduction of growth)
Protocol: as §2

[4] = test system: prostate cancer cells PC3; assay: MTT cytotoxicity assay, PC3; type: cell-based, human; details: PC3, 72 hours; read-out: IC50 (reduction of growth)
Protocol: as §2

NTUB1 cells [5] = assay: Cell cycle / sub-G1 apoptotic fraction by flow cytometry; type: cell-based, human; details: 24 hours
NTUB1 cells [6] = assay: Intracellular ROS (DCFH-DA flow cytometry), NTUB1; type: cell-based, human; details: NTUB1, 10 μM, compared with control cells
Protocol: (§3) Production of ROS was analyzed by flow cytometry. Briefly, cells were plated in 6-well plates, and dichlorofluorescein diacetate (DCFH-DA, […]) were added to the treated cells 30 minutes prior to harvest. The cells were collected by trypsinization and washed with PBS. The green fluorescence of intracellular DCF (2′,7′-dichlorofluorescein) was then analyzed by FACScan™ flow cytometer with a 525-nm band pass filter. The ROS production efficiency (M1 ratio) was calculated as “[counts of treated sample in M1−counts of control in M1]/counts of control in M1×100”.

SV-HUC-1 cells = assay: Intracellular ROS (DCFH-DA flow cytometry), SV-HUC-1; type: cell-based, human; details: SV-HUC-1, 10 μM, compared with control cells
Protocol: as §3

NTUB1 cells [7] = assay: Immunoblotting of cellular proteins; type: cell-based, human
NTUB1 cells [8] = assay: Combinational cytotoxicity (MTT, combination index, median-effect analysis); type: cell-based, human; details: 24, 48, 72 hours
Protocol: as §2, with “respectively. […]” for “respectively.”

N.N.[Cl][Pt][Cl] [CDDP, cis-diamminedichloridoplatinum]
IC50 ([1]; 72 hours, 1×10^3 cells/well (data not shown), read-out: IC50 to NTUB1 cells): 3 µM

(3Z,4R,5R)-3-tetradecylidene-4-hydroxy-5-methoxy-5-methylbutanolide [subamolide A]
IC50 ([1]; NTUB1, 72 hours, read-out: IC50 (reduction of growth)): 7.26 ± 0.67 µM | IC50 [2]: 18.1 ± 1.03 µM | IC50 [3]: 7.6 ± 0.96 µM | IC50 [4]: 10.1 ± 0.59 µM | sub-G1 apoptotic fraction (NTUB1 cells [5]; 1 μM): 5% | sub-G1 apoptotic fraction (NTUB1 cells [5]; 5 μM): 10.8% | sub-G1 apoptotic fraction (NTUB1 cells [5]; 10 μM): 21.9% | ROS M1 ratio (NTUB1 cells [6]): −14.7±0.99% | ROS M1 ratio (SV-HUC-1 cells): −11.6±1.41% | Bax/Bcl-2 ratio, fold of change (NTUB1 cells [7]; 10 μM): two-fold increase | cytochrome c released from mitochondria to cytosol, fold of change (NTUB1 cells [7]; 10 μM): 2.3 folds | ERK1/2 activation (immunoblot) (NTUB1 cells [7]; 10 μM, 24 hours, not p38 or JNK): specifically activated | p53 protein and phosphorylation of p53 at serine 15 (NTUB1 cells [7]; NTUB1 cells): induced | pro-caspase 3 and 116 kDa full length PARP proteins (NTUB1 cells [7]; with increased concentration): decreased | combinational effect with CDDP (NTUB1 cells [8]; subamolide A 0, 1, 5, 10 μM + CDDP 1 and 3 μM): synergism | combinational effect with Gem (NTUB1 cells [8]; subamolide A 0, 1, 5, 10 μM + Gem 2 and 8 nM): synergism

Nc1ccn([C@@H]2O[C@H](CO)[C@@H](O)C2(F)F)c(=O)n1 [Gem, 4-amino-1-(2-deoxy-2,2-difluoro-β-D-erythro-pentofuranosyl)-pyrimidin-2(1H)-on]
IC50 ([1]; Homo sapiens, NTUB1, 72 hours, 1×10^3 cells/well (data not shown), read-out: IC50 to NTUB1 cells): 0.008 µM
